Each structure is given as a SMILES string. Counter-ions that a name gives are not always drawn. Like-named read-outs stand apart in the source and are kept apart here. Some results are limits rather than exact numbers.

From patent US10975056B2 (GlaxoSmithKline Intellectual Property Development Limited, priority 2016, dated 2021) come the findings set out here.

The subject of test [1] is erythroid progenitor cells (EPCs). Put plainly: Fetal hemoglobin (HbF) ELISA in day 7 erythroid progenitor cells.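 Note: for fetal hemoglobin induction normalized to vehicle-treated cells.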 It counts as cell-based, human. As to conditions: Homo sapiens, Erythroid progenitor cell, HbF ELISA, day 7 EPCs, 5 days; read-out: EPC ELISA (pEC50 category) (converted). Summed up: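 Day 7 EPCs from human bone marrow CD34+ cells were plated at 1,000 cells/well in media with 3 U/mL rhEPO. They were exposed to a 22-point dilution ([…]) for 5 days at 37 °C. Lysate HbF was measured by sandwich ELISA (OD450) and normalized to DMSO control wells.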
For orientation: ELISA stands for enzyme-linked immunosorbent assay.

A further test deals with human DNMT3a/3l (Homo sapiens (Human), UniProt Q9Y6K1). Put plainly: DNMT3a/3l breaklight assay. It is filed as biochemical. How it is done: DNMT3a/3l Breakliqht Assay
Sequence of human DNMT3a/3l (Q9Y6K1 whole entry, looked up): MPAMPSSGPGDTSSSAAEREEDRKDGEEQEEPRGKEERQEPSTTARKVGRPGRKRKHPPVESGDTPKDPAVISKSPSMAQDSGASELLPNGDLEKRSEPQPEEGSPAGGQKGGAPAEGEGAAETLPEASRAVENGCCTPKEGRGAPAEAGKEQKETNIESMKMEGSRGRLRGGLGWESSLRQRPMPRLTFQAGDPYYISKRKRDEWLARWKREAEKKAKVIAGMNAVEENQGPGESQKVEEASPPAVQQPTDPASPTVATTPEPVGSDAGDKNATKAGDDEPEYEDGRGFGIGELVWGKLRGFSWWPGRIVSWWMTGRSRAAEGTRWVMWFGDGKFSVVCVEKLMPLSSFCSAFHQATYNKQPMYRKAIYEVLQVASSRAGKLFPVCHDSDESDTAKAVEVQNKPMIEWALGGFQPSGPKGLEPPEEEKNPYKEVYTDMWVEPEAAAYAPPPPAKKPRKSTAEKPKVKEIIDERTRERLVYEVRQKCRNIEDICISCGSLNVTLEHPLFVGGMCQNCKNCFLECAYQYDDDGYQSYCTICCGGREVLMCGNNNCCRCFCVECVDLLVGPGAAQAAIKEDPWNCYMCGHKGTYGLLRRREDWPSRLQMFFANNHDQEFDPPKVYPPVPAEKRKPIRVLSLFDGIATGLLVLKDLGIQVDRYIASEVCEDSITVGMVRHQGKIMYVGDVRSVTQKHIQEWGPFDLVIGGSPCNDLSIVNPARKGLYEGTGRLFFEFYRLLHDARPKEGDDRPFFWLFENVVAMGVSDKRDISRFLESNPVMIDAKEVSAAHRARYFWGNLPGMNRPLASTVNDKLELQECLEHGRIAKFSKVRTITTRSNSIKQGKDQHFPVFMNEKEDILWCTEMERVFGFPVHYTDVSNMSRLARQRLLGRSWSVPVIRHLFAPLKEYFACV
Sequence of human DNMT3a/3l (Q9UJW3 whole entry partner, looked up): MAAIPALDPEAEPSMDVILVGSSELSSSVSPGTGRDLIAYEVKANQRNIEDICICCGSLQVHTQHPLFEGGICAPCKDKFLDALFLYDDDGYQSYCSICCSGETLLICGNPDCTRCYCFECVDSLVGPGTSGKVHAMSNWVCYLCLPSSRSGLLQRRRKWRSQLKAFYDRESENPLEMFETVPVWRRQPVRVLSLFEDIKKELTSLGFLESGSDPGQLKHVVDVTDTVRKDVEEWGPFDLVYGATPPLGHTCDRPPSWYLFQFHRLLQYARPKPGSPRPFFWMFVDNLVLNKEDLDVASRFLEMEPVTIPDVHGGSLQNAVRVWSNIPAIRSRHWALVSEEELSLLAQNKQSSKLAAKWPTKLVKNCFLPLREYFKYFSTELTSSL
DNMT3a/3l breaklight in vitro assays were conducted in a total volume of 50 μl in a standard 384 well format, using black non-binding surface microplates (Corning #3575). […] Negative control wells used 5 μl of DNMT3a/3l and 5 μl of oligonucleotide but also included 200 μM SAH. All reagents were made up in 1× assay buffer (20 mM Tris pH 7.4, 100 mM NaCl, 1.5 mM EDTA, 0.1 mM MgCl2, 1 mM CHAPS and 1 mM DTT). The reaction was incubated at 37° C. for 90 min and then stopped with the addition of 40 μl detection reagent. Detection reagent, made up in 1× Gla assay buffer (20 mM Tris pH 8.0, 80 mM NaCl, 0.75 mM MgCl2, 0.01% Triton X100 and 1 mM DTT) has a final concentration of 200 μM SAH (Sigma #A9384) and 0.0008 units/μl Gla1 restriction endonuclease (Sibenzyme #E494). Following addition of the detection reagent the plate was incubated in the dark at room temperature for 5 hr. Fluorescence intensity was then measured on the PHERAstar FS (BMG Labtech) at Ex 485 nm and Em 520 nm, with a gain of 400 and an integration time of 100 ms.

In the next test the target is DNMT3B (Homo sapiens (Human), UniProt Q9UBC3). Put plainly: DNMT3B breaklight assay. It is filed as biochemical.
The next test concerns the target DNMT1 (Homo sapiens, UniProt P26358). Nature of the test: DNMT1 biochemical activity, breaklight assay and/or SPA assay.
Setting [2] is: read-out: DNMT3A Breaklight IC50.
Setting [3] is: read-out: DNMT3B Breaklight IC50.
Where [4] appears, read: binned activity in either the breaklight or the SPA assay.
Where [5] appears, read: breaklight assay and/or SPA assay, repeated experimental runs, read-out: average pIC50 against DNMT1 (converted).
The mark [6] stands for this setting: repeated experimental runs, read-out: average IC50, DNMT3B breaklight assay.
[7] abbreviates: breaklight assay and/or SPA assay, repeated experimental runs.
Where [8] appears, read: binned activity in either the breaklight or the SPA assay, read-out: DNMT1 BioChemical (pIC50 category) (converted).

Sequence of DNMT1 (P26358 whole entry, looked up): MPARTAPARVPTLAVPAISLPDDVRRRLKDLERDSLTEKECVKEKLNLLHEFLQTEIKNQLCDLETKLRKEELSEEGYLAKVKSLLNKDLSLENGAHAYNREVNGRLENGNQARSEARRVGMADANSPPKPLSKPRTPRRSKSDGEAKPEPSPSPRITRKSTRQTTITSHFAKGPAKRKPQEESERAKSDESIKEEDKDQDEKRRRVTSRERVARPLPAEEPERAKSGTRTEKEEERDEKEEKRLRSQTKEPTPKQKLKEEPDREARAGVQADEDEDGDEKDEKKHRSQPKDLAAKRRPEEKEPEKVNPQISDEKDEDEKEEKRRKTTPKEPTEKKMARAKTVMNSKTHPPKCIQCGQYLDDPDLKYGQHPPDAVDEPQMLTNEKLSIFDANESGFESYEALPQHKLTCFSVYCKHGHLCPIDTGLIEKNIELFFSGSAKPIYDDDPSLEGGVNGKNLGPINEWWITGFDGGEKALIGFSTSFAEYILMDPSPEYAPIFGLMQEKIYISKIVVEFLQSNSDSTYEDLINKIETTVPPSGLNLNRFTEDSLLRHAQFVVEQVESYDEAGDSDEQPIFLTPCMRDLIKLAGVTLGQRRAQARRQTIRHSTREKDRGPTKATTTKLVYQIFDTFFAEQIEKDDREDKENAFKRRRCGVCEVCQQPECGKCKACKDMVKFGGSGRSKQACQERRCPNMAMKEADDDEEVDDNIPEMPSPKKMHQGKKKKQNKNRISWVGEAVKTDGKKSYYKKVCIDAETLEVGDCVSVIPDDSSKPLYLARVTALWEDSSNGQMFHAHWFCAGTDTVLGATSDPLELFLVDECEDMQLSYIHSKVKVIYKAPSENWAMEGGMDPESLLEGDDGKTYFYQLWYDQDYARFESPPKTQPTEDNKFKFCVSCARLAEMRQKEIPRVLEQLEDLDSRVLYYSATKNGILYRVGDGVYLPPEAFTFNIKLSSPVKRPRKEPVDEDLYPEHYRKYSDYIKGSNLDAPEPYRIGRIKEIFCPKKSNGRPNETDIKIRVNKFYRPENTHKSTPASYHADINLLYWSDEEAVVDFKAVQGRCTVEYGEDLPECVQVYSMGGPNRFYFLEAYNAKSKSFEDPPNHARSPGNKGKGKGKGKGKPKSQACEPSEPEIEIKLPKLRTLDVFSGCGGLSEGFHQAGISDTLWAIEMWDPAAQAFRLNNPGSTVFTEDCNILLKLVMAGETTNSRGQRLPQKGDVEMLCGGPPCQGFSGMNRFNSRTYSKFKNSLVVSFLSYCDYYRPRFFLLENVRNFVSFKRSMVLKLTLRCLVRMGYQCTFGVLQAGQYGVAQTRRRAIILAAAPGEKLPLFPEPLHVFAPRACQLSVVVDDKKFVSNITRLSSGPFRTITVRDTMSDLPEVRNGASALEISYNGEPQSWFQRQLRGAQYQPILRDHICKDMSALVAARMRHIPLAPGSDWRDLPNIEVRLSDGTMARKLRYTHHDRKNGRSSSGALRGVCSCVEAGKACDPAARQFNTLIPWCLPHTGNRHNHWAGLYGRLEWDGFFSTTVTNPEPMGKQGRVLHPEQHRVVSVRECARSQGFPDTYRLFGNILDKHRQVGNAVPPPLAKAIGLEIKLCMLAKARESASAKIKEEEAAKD

For `CCc1c(C#N)c(SC(C(N)=O)c2ccccc2)nc(N2CCCNCC2)c1C#N` (stereo not drawn) [Example 112, 2-{[3,5-Dicyano-6-(1,4-diazepan-1-yl)-4-ethylpyridin-2-yl]sulfanyl}-2-phenylacetamide], the EC50 in test [1] is less than 316 nM. The IC50 on human DNMT3a/3l (setting [2]) and on DNMT3B (setting [3]) was more than 500000 nM each time. Besides, the “DNMT1 BioChemical (pIC50 category)” value at DNMT1 (setting [4]) is “D (Category D: ≥6.5)”.
With `CCc1c(C#N)c(SC(C(N)=O)c2ccccc2)nc(N2CCC(NC(=O)[C@H](C)N)CC2)c1C#N` (stereo partly drawn) [Example 138, (2S)-2-Amino-N-(1-(6-((2-amino-2-oxo-1-phenylethyl)thio)-3,5-dicyano-4-ethylpyridin-2-yl)piperidin-4-yl)propanamide, Trifluoroacetic Acid Salt], the EC50 in test [1] is less than 316 nM. Besides, the IC50 on DNMT3B (setting [3]) was 167000 nM; at DNMT1 (setting [5]) it was 100 nM. Further, at DNMT1 (setting [4]), the “DNMT1 BioChemical (pIC50 category)” value was “D (Category D: ≥6.5)”. Besides, the “average pIC50 against DNMT1” value at DNMT1 (breaklight assay and/or SPA assay, repeated experimental runs, Trifluoroacetic Acid Salt) is more than 6.5.
As for `CCc1c(C#N)c(SC(C(N)=O)c2ccccc2)nc(N(C)C)c1C#N` (stereo not drawn) [Example 3, 2-{[3,5-dicyano-6-(dimethylamino)-4-ethylpyridin-2-yl]sulfanyl}-2-phenylacetamide], the EC50 in test [1] was 316 to 1000 nM. The IC50 at DNMT3B (setting [3]) and at DNMT3B (setting [6]) was more than 500000 nM each time.
Turning to `CCc1c(C#N)c(SCc2ccc(CNC(=O)CO)cc2)nc(N2CCCN(C)CC2)c1C#N` [Example 86, N-(4-(((3,5-Dicyano-4-ethyl-6-(4-methyl-1,4-diazepan-1-yl)pyridin-2-yl)thio)methyl)benzyl)-2-hydroxyacetamide], in test [1], the EC50 was less than 316 nM. Also, the IC50 on DNMT3B (setting [3]) was more than 250000 nM; on DNMT1 (setting [5]) it was 200 nM. In addition, the “DNMT1 BioChemical (pIC50 category)” value at DNMT1 (setting [4]) is given as “D (Category D: ≥6.5)”. Also, the “average pIC50 against DNMT1” value at DNMT1 (setting [7]) is reported as more than 6.5.
Consider `CCc1c(C#N)c(SCc2ccc(S(N)(=O)=O)cc2)nc(N2CCCN(C)CC2)c1C#N` [Example 76, 4-(((3,5-Dicyano-4-ethyl-6-(4-methyl-1,4-diazepan-1-yl)pyridin-2-yl)thio)methyl)benzenesulfonamide], for which the EC50 in test [1] was 316 to 1000 nM. Also, the IC50 at DNMT3B (setting [3]) was more than 250000 nM.
As to `CCc1c(C#N)c(SC(C(N)=O)c2ccccc2)nc(N2CCC(N3CCNC3=O)CC2)c1C#N` (stereo not drawn) [Example 47, 2-((3,5-Dicyano-4-ethyl-6-(4-(2-oxoimidazolidin-1-yl)piperidin-1-yl)pyridin-2-yl)thio)-2-phenylacetamide], the EC50 in test [1] was 316 to 1000 nM. Besides, the IC50 at human DNMT3a/3l (setting [2]) is more than 500000 nM; on human DNMT3a/3l (repeated experimental runs, read-out: average IC50, DNMT3A breaklight assay) it was more than 500000 nM; at DNMT3B (setting [3]), more than 500000 nM; on DNMT3B (setting [6]), more than 500000 nM; on DNMT1 (setting [8]), 316 to 1000 nM.
On to `CCc1c(C#N)c(SCc2ccccc2)nc(N2CCC(N)CC2)c1C#N` [Example 81, 2-(4-Aminopiperidin-1-yl)-6-(benzylthio)-4-ethylpyridine-3,5-dicarbonitrile], for which the EC50 in test [1] is more than 31600 nM. Also, the IC50 on DNMT3B (setting [3]) is more than 250000 nM; at DNMT1 (setting [8]) it was 316 to 1000 nM; at DNMT1 (setting [5]), not below 1000 nM.
On to `CCc1c(C#N)c(SCc2ccc(CNC(C)=O)cc2)nc(N2CCCN(C)CC2)c1C#N` [Example 77, N-(4-(((3,5-Dicyano-4-ethyl-6-(4-methyl-1,4-diazepan-1-yl)pyridin-2-yl)thio)methyl)benzyl)acetamide], for which the EC50 in test [1] was less than 316 nM. In addition, the IC50 on DNMT3B (setting [3]) was more than 250000 nM. The “DNMT1 BioChemical (pIC50 category)” value at DNMT1 (setting [4]) is recorded as “D (Category D: ≥6.5)”. Moreover, the “average pIC50 against DNMT1” value at DNMT1 (setting [7]) is recorded as more than 6.5.
With `CCc1c(C#N)c(SCc2ccc(=O)[nH]c2)nc(N(C)C)c1C#N` [Example 74, 2-(Dimethylamino)-4-ethyl-6-(((6-oxo-1,6-dihydropyridin-3-yl)methyl)thio)pyridine-3,5-dicarbonitrile], in test [1], the EC50 is 1000 to 31600 nM. Besides, the IC50 is more than 250000 nM at DNMT3B (setting [3]), 1000 to 31600 nM at DNMT1 (setting [8]) and not below 1000 nM at DNMT1 (setting [5]).
As for `CCc1c(C#N)c(SCc2ccc(S(=O)(=O)NC)cc2)nc(N2CCCN(C)CC2)c1C#N` [Example 104, 4-(((3,5-Dicyano-4-ethyl-6-(4-methyl-1,4-diazepan-1-yl)pyridin-2-yl)thio)methyl)-N-methylbenzenesulfonamide], the EC50 in test [1] was less than 316 nM. The IC50 at DNMT3B (setting [3]) was found to be 254000 nM. For the same molecule, the “DNMT1 BioChemical (pIC50 category)” value at DNMT1 (setting [4]) is “D (Category D: ≥6.5)”.
Consider `CCc1c(C#N)c(SCc2ccc(CC(N)=O)cc2)nc(N2CCCN(C)CC2)c1C#N` [Example 83, 2-(4-(((3,5-dicyano-4-ethyl-6-(4-methyl-1,4-diazepan-1-yl)pyridin-2-yl)thio)methyl)phenyl)acetamide], for which the EC50 in test [1] was less than 316 nM. For the same molecule, the IC50 at DNMT3B (setting [3]) is more than 250000 nM. For the same molecule, the “DNMT1 BioChemical (pIC50 category)” value on DNMT1 (setting [4]) is on record as “D (Category D: ≥6.5)”. Moreover, the “average pIC50 against DNMT1” value on DNMT1 (setting [7]) is on record as more than 6.5.
As to `CCc1c(C#N)c(SCc2ccc(CC(=O)NC)cc2)nc(N2CCCN(C)CC2)c1C#N` [Example 84, 2-(4-(((3,5-Dicyano-4-ethyl-6-(4-methyl-1,4-diazepan-1-yl)pyridin-2-yl)thio)methyl)phenyl)-N-methylacetamide], in test [1], the EC50 was less than 316 nM. Further, the IC50 at DNMT3B (setting [3]) was more than 250000 nM. Also, the “DNMT1 BioChemical (pIC50 category)” value on DNMT1 (setting [4]) is recorded as “D (Category D: ≥6.5)”.
With `CCc1c(C#N)c(SCc2ccc(CNC(C)=O)cc2)nc(N2CCC(N3CCCC3)CC2)c1C#N` [Example 66, N-(4-((3,5-Dicyano-4-ethyl-6-(4-(pyrrolidin-1-yl)piperidin-1-yl)pyridin-2-ylthio)methyl)benzyl)acetamide trifluoroacetate], the EC50 in test [1] was less than 316 nM. In addition, on DNMT1 (setting [4]), the “DNMT1 BioChemical (pIC50 category)” value was “D (Category D: ≥6.5)”.
The matching figures for `CCc1c(C#N)c(SC(C(N)=O)c2ccccc2)nc(N2CC(CO)C2)c1C#N` (stereo not drawn) [Example 262, 2-((3,5-Dicyano-4-ethyl-6-(3-(hydroxymethyl)azetidin-1-yl)pyridin-2-yl)thio)-2-phenylacetamide]: 1000 to 31600 nM and “D (Category D: ≥6.5)”.
Turning to `CCc1c(C#N)c(SCc2ccc(CNC(C)=O)cc2)nc(N(C)Cc2nnc[nH]2)c1C#N` [Example 349, N-(4-(((6-(((4H-1,2,4-Triazol-3-yl)methyl)(methyl)amino)-3,5-dicyano-4-ethylpyridin-2-yl)thio)methyl)benzyl)acetamide], the EC50 in test [1] is 1000 to 31600 nM. The IC50 on DNMT1 (setting [8]) was 316 to 1000 nM.
The like results for `CCc1c(C#N)c(SC(C(N)=O)c2ccccc2)nc(N2CC(OP(=O)(O)O)C2)c1C#N` (stereo not drawn) [Example 152, 1-(6-((2-Amino-2-oxo-1-phenylethyl)thio)-3,5-dicyano-4-ethylpyridin-2-yl)azetidin-3-yl dihydrogen phosphate] were, in that order, 1000 to 31600 nM and 1000 to 31600 nM.
On to `CCc1c(C#N)c(SC(C(N)=O)c2ccccc2)nc(N(C)CC(=O)N2CCO[C@H](CO)C2)c1C#N` (stereo partly drawn) [Example 646, 2-((3,5-dicyano-4-ethyl-6-((2-((S)-2-(hydroxymethyl)morpholino)-2-oxoethyl)(methyl)amino)pyridin-2-yl)thio)-2-phenylacetamide], for which, in test [1], the EC50 is less than 316 nM. Besides, the “DNMT1 BioChemical (pIC50 category)” value on DNMT1 (setting [4]) is reported as “D (Category D: ≥6.5)”.
`CCc1c(C#N)c(SC(C(N)=O)c2ccccc2)nc(N(C)CCN(CC)CC)c1C#N` (stereo not drawn) [Example 515, 2-((3,5-dicyano-6-((2-(diethylamino)ethyl)(methyl)amino)-4-ethylpyridin-2-yl)thio)-2-phenylacetamide]: the EC50 in test [1] was less than 316 nM. The “DNMT1 BioChemical (pIC50 category)” value on DNMT1 (setting [4]) is given as “D (Category D: ≥6.5)”.
With `CCc1c(C#N)c(SC(C(N)=O)c2ccccc2)nc(N2CCC(N3C(=O)CNC3=O)CC2)c1C#N` (stereo not drawn) [Example 250, 2-((3,5-Dicyano-6-(4-(2,5-dioxoimidazolidin-1-yl)piperidin-1-yl)-4-ethylpyridin-2-yl)thio)-2-phenylacetamide], the EC50 in test [1] was 1000 to 31600 nM. In addition, the IC50 on DNMT1 (setting [8]) was 316 to 1000 nM.
In the case of `CCc1c(C#N)c(SC(C(N)=O)c2ccc(S(=O)(=O)NC)cc2)nc(N(C)C)c1C#N` (stereo not drawn) [Example 402], in test [1], the EC50 is 1000 to 31600 nM. Moreover, at DNMT1 (setting [4]), the “DNMT1 BioChemical (pIC50 category)” value is recorded as “D (Category D: ≥6.5)”.
On to `CCc1c(C#N)c(SC(C(N)=O)c2ccccc2)nc(N2CCCN3CCCC3C2)c1C#N` (stereo not drawn) [Example 117, 2-((3,5-Dicyano-4-ethyl-6-(hexahydro-1H-pyrrolo[1,2-a][1,4]diazepin-2(3H)-yl)pyridin-2-yl)thio)-2-phenylacetamide], for which the EC50 in test [1] was less than 316 nM. Besides, the IC50 at DNMT1 (setting [8]) and on DNMT1 (setting [5]) was 316 to 1000 nM in each case.
